Test results taken from ChEMBL document CHEMBL5344471, “64Cu-Labeled Boron-Containing Cyclic RGD Peptides for BNCT and PET Imaging” (ACS Med Chem Lett, 2024).
Active and inactive are the calls of the source. The rule behind the calls is not given here.

Tests used:
[1] = Biodistribution in Balb/c mouse xenografted with human U-87 MG cells by measuring ratio of boron concentration in tumor to muscle at 0.04 mmol,iv administrated for 1 hr by ICP-MS analysis; format: ADME, organism-based; details: in vivo
[2] = Biodistribution in Balb/c mouse xenografted with human U-87 MG cells by measuring ratio of boron concentration in tumor to kidney at 0.04 mmol,iv administrated for 1 hr by ICP-MS analysis; format: ADME, organism-based; details: in vivo
U-87 MG = test: Cytotoxicity against human U-87 MG cells at 10 to 400 uM incubated for 24 hrs by CCK-8 assay; format: functional, cell-based; details: U-87MG ATCC, dose 10-400 µM
[3] = Biodistribution in Balb/c mouse xenografted with human U-87 MG cells by measuring ratio of boron concentration in tumor to liver at 0.04 mmol,iv administrated for 1 hr by ICP-MS analysis; format: ADME, organism-based; details: in vivo
[4] = Biodistribution in Balb/c mouse xenografted with human U-87 MG cells by measuring ratio of boron concentration in tumor to brain at 0.04 mmol,iv administrated for 1 hr by ICP-MS analysis; format: ADME, organism-based; details: in vivo

SMILES: N=C(N)NCCC[C@@H]1NC(=O)[C@H](CCCCN)NC(=O)[C@@H](Cc2ccc(B(O)O)cc2)NC(=O)[C@H](CC(=O)O)NC(=O)CNC1=O
- Ratio [1]: 2.41
- Ratio [2]: 0.43
- Activity (U-87 MG): inactive
- Ratio [3]: 2.5
- Ratio [4]: 13.4
